Experimental data from patent US20240360145A1, “PYRIMIDINE-2,4-DIAMINE DERIVATIVES AS WELL AS PREPARATION METHOD THEREFOR AND USE THEREOF” (LISEN THERAPEUTICS, INC., priority 2022, published 2024).
Like-named read-outs stand apart in the source and are kept apart here.

How the values were obtained:
[1] = system: NCI-H146 cells; test: Cell viability IC50 (CCK-8), small cell lung cancer cell line H146; format: cell-based; conditions: H146, CCK-8
Description: (§1) Small cell lung cancer cell lines DMS114, NCI-H1688, NCI-H82, NCI-H146, and NCI-H446 cells were cultured in RPMI-1640 medium containing 10% fetal bovine serum and 1% penicillin-streptomycin. All the cells were cultured in a constant temperature incubator containing 5% CO2 at 37° C.
(§2) Small cell lung cancer is a highly heterogeneous malignant tumor, and its clinical treatment is mainly based on traditional chemotherapy (mainly platinum medicaments and etoposide). In order to study the anti-tumor activity of the compounds of the present disclosure in small cell lung cancer, the CCK-8 method was used to investigate the cell viability IC50 of compound 8 for five small cell lung cancer cell lines.

[2] = system: NCI-H446 cells; test: Cell viability IC50 (CCK-8), small cell lung cancer cell line H446; format: cell-based; conditions: H446, CCK-8
Description: as §1, §2

[3] = system: LT015 primary cells; test: Cell viability IC50 (CCK-8), primary cells LT015 from small cell lung cancer bronchoscopic biopsy; format: cell-based; conditions: LT015, CCK-8
Description: (1) The tissue blocks obtained from the tumor patients were transferred from the preservation solution to the pre-cooled HBSS buffer containing antibiotics, and the tissue blocks were washed for three times with the pre-cooled HBSS buffer.
(2) Tissue was sheared on ice with sterile surgical instruments until no obvious tissue blocks are visible to the naked eye, the tissue fluid was collected into a 15 ml centrifuge tube, and this process takes about 5 to 10 minutes.
(3) Digestive enzymes (collagenase I, collagenase IV and neutral protease being mixed in a ratio of 1:1:1, a concentration of stock solution was 10 mg/ml, diluted with PBS buffer or HBSS buffer, and the use concentration was 1 mg/ml) were added to the centrifuge tube, and after mixing well by pipetting, the centrifuge tube was placed in a 37° C. constant temperature incubator for 1 to 2 hours.
(4) High-glucose medium was added to the centrifuge tube to stop digestion. After mixing well, the cell precipitate was collected by centrifugation, and resuspended with MBM medium (Advanced DMEM-F12+20 ng/ml bFGF+50 ng/ml EGF+1% ITS-X+2% B27+10 μMY-27632+1% PS). The cell suspension was placed in a Matrigel-coated 24-well plate and cultured for 5 to 7 days. When the cell density in the well plate reaches 80-90%, the cells were sub-cultured into a 6 cm cell culture dish, and when they grew to a density of 80% to 90%, the cells were cryopreserved for preservation.
(§3) (1) Primary cells from lung cancer pleural effusion within 5 generations were cultured to the logarithmic growth phase. When the confluence reached about 90%, the cells were digested with 0.25% trypsin, and complete culture medium was added to collect the cells. After centrifugation at room temperature, the supernatant was discarded, and the cell precipitate was resuspended with fresh complete culture medium. After counting, the cells were placed at room temperature for later use. The cells were inoculated into a 384-well plate at a density of 2000 cells/well with a volume of 40 μl/well. The wells at the outermost circle of the plate were not inoculated with cells, and instead, added with sterile water to reduce evaporation of the culture medium.
(§4) (2) After overnight culture of the cells, the medium was discarded, and a fresh medium containing different concentrations of compounds was added at 200 μl/well. The dilution method of the compound was as follows: first the compound with the highest concentration of 10 μM was prepared, and then the compound was diluted for 3 times in sequence. […] At the same time, a blank control group was set up, in which only an equal volume of culture medium was added without adding cells. Five replicate wells were set up for each group. The cells were placed in the incubator for further culture.
(§5) (3) After 72 hours, 8 μl of CCK-8 solution, which was double-diluted with 10 mM PBS, was added to each well, and the cells were shaken and placed in an incubator at 37° C. for further culture for 2 hours.
(§6) (4) The light absorbance value at 450 nm was read using a microplate reader, and the IC50 was calculated according to the absorbance value. The calculation method was the same as above.
(§7) (1) Sample information: PE039, PE052, and PE062 were all primary cell samples from pleural effusion of patients with small cell lung cancer, and LT015 was a primary cell sample from bronchoscopic biopsy of a patient with small cell lung cancer.
(§8) (2) CCK-8 detection was used to detect the IC50 values of different medicaments (compounds).

[4] = system: NCI-H1688 cells; test: Cell viability IC50 (CCK-8), small cell lung cancer cell line H1688; format: cell-based; conditions: H1688, CCK-8
Description: as §1, §2

[5] = system: PE062 primary cells; test: Cell viability IC50 (CCK-8), primary cells PE062 from small cell lung cancer pleural effusion; format: cell-based; conditions: PE062, CCK-8
Description: (§9) (1) The pleural effusion was poured into a 15 mL or 50 mL of sterilized centrifuge tube for centrifugation. Centrifugation conditions: 800 to 1000 rpm, 5 min.
(§10) (2) The precipitate was resuspended and washed for 2 to 3 times with PBS.
(§11) (3) The cell precipitate was resuspended with complete culture medium (α-MEM medium containing 10% fetal bovine serum and 2% penicillin-streptomycin), and the flocculent matter in the pleural effusion was removed using a sterilized cell sieve.
(§12) (4) The red blood cells in the pleural effusion were removed with lymphocyte separation fluid, and the tumor cells and lymphocyte components were collected. The number of tumor cells was observed under a microscope, and the cells were inoculated.
(§13) (5) After 24 hours, the supernatant was discarded, and fresh culture medium was added for further culture.
(§14) (6) The cell growth status was observed, and it was determined based on the cell status whether the medium was required to be continuously changed to remove blood cells. When the cells grew to a density of 80% to 90%, the cells were preserved.
as §3, with “When the confluence reached about 90%, the cells were digested with 0.25% trypsin, and complete culture medium was added to collect the cells.” left out
as §4, §5, §6, §7, §8

[6] = system: NCI-H82 cells; test: Cell viability IC50 (CCK-8), small cell lung cancer cell line H82; format: cell-based; conditions: H82, CCK-8
Description: as §1, §2

[7] = system: DMS114 cells; test: Cell viability IC50 (CCK-8), small cell lung cancer cell line DMS114; format: cell-based; conditions: DMS114, CCK-8
Description: as §1, §2

[8] = system: PE039 primary cells; test: Cell viability IC50 (CCK-8), primary cells PE039 from small cell lung cancer pleural effusion; format: cell-based; conditions: PE039, CCK-8
Description: as §9, §10, §11, §12, §13, §14
as §3, with “When the confluence reached about 90%, the cells were digested with 0.25% trypsin, and complete culture medium was added to collect the cells.” left out
as §4, §5
(4) The light absorbance value at 450 nm was read using a microplate reader, and the IC50 was calculated according to the absorbance value. The calculation method was the same as above. […]

[9] = system: PE052 primary cells; test: Cell viability IC50 (CCK-8), primary cells PE052 from small cell lung cancer pleural effusion; format: cell-based; conditions: PE052, CCK-8
Description: as §9, §10, §11, §12, §13, §14
as §3, with “When the confluence reached about 90%, the cells were digested with 0.25% trypsin, and complete culture medium was added to collect the cells.” left out
as §4, §5, §6, §7, §8

[10] = system: NCI-H1975 cells; test: Cell viability IC50 (MTT), Gefitinib-resistant NCI-H1975 cells
[11] = system: PE043 primary cells; test: Cell viability IC50 (CCK-8), primary cells PE043 from lung adenocarcinoma pleural effusion resistant to EGFR-TKI; conditions: read-out: cell viability IC50
[12] = system: NCI-H1650 cells; test: Cell viability IC50 (MTT), Gefitinib- and Osimertinib-resistant NCI-H1650 cells; conditions: Homo sapiens, NCI-H1650, 72 h, read-out: cell viability IC50
[13] = system: NCI-H1792 cells; test: Cell viability IC50 (MTT), AMG510-resistant NCI-H1792 cells; format: cell-based; conditions: Homo sapiens, NCI-H1792 cells (KRAS G12C)
Description: Non-small cell lung cancer cell lines NCI-H1975, NCI-H1650, and NCI-H1792 were cultured in RPMI-1640 medium containing 10% fetal bovine serum and 1% penicillin-streptomycin. 1% sodium pyruvate was additionally added when culturing NCI-H1975 cells. All the cells were cultured in a constant temperature incubator containing 5% CO2 at 37° C.
(1) The cells were cultured to the logarithmic growth phase. When the confluence reached about 90%, the cells were digested with 0.25% trypsin, and complete medium was added to collect the cells. After centrifugation at room temperature, the supernatant was discarded, and the cell precipitate was resuspended with fresh complete medium. […]
(5) The medium was carefully aspirated off, 100 μl of DMSO was added to dissolve the precipitate formed by the reaction with MTT, shaking and mixing to mix the blue-violet crystals well, and the light absorbance value at 492 nm was read with a microplate reader.
(6) IC50 of the compounds for different cells was calculated based on the light absorption value of each group. Specifically, the absorbance value under treatment with different concentrations of compounds was first subtracted from the absorbance value of the blank well, and then the absorbance value of the 0 μM group was taken as 100% to calculate the cell survival rate after treatment with different concentrations of compounds. […]

[14] = system: small cell lung cancer cell line H446 cells; test: In vivo antitumor effect in mice bearing small cell lung cancer cell line H446 cells (CDX model)

| SMILES | IC50 [5] | IC50 ([1]; Homo sapiens, NCI-H146) | IC50 ([2]; Homo sapiens, NCI-H446) | IC50 [3] | IC50 ([4]; NCI-H1688) | IC50 ([7]; Homo sapiens, DMS-114) | IC50 [8] | IC50 [9] | other results |
| --- | --- | --- | --- | --- | --- | --- | --- | --- | --- |
| C=CC(=O)Nc1cc(Nc2nccc(-c3cn(C)c4ccccc34)n2)c(OC)cc1N(C)CCN(C)C [Osimertinib] | 2740 nM | – | – | – | – | – | 3990 nM | 568 nM | IC50 ([10]; Homo sapiens, NCI-H1975, 72 h, read-out: cell viability IC50, NCI-H1975 cells, 72 hours, MTT): […]; IC50 ([10]; read-out: cell viability IC50, NCI-H1975 cells, 72 hours, MTT): […]; IC50 [11]: 3370 nM; IC50 [12]: 2750 nM |
| C=CC(=O)N1CCN(c2nc(=O)n(-c3c(C)ccnc3C(C)C)c3nc(-c4c(O)cccc4F)c(F)cc23)[C@@H](C)C1 [AMG510] | > 10000 nM | – | – | – | – | – | – | > 10000 nM | IC50 [13]: > 10000 nM |
| CNS(=O)(=O)c1ccccc1Nc1nc(Nc2ccc(CN3C4CCC3CN(C)C4)cc2)ncc1Cl [Compound 15, 2-((5-chloro-2-((4-((3-methyl-3,8-diazabicyclo[3.2.1]octan-8-yl)methyl)phenyl)amino)pyrimidin-4-yl)amino)-N-methylbenzenesulfonamide] | – | 16.2 nM | 6.54 nM | – | 9.16 nM | 8.53 nM | – | – | – |
| N.N.[Cl][Pt][Cl] [Cisplatin] | 3210 nM | – | – | 5460 nM | – | – | 11100 nM | 885 nM | IC50 [1]: 3890 nM; IC50 [2]: 559 nM; IC50 [4]: 14100 nM; IC50 ([11]; PE043, CCK-8): 31000 nM; IC50 [6]: 1760 nM; IC50 [7]: 2150 nM |
| Nc1ccn([C@@H]2O[C@H](CO)[C@@H](O)C2(F)F)c(=O)n1 [Gemcitabine] | – | – | – | – | – | – | – | – | IC50 [11]: > 834000 nM |
| CN1CCN(Cc2ccc(Nc3ncc(Cl)c(Nc4ccccc4S(=O)(=O)N(C)C)n3)cc2)CC1 [TP-0903] | 5.1 nM | 1540 nM | 276 nM | 94.3 nM | 534 nM | 95.1 nM | 134 nM | 210 nM | inhibitory effect on tumor volume growth compared with blank control (FIG. 1) ([14]; H446 CDX nude mice, intraperitoneal injection, 20 days): no significant inhibitory effect on tumor volume growth; animals survived ([14]; H446 CDX nude mice, intraperitoneal injection, 20 days, compound 8 and TP-0903 15 mg/kg once a day for 13 days, Cisplatin 2.5 mg/kg + Etoposide 4 mg/kg cycles): 11 of 12; body weight changes of nude mice (FIG. 2) ([14]; during the drug administration period, recovered rapidly after drug withdrawal): no significant decrease in body weight; IC50 ([6]; Homo sapiens, NCI-H82): 35 nM |

Further lines, with some results ahead:

| IC50 [5] | SMILES | IC50 ([1]; Homo sapiens, NCI-H146) | IC50 ([2]; Homo sapiens, NCI-H446) | IC50 [3] | IC50 ([4]; NCI-H1688) | IC50 ([7]; Homo sapiens, DMS-114) | IC50 [8] | IC50 [9] | other results |
| --- | --- | --- | --- | --- | --- | --- | --- | --- | --- |
| 770 nM | COc1cc([C@@H]2c3cc4c(cc3[C@@H](O[C@@H]3O[C@@H]5CO[C@@H](C)O[C@H]5[C@H](O)[C@H]3O)[C@H]3COC(=O)[C@H]23)OCO4)cc(OC)c1O [Etoposide] | 434 nM | 1060 nM | 48200 nM | 739 nM | 917 nM | – | – | IC50 ([6]; Homo sapiens, NCI-H82): 545 nM |
| 900 nM | C[C@@H](Oc1cc(-c2cnn(C3CCNCC3)c2)cnc1N)c1c(Cl)ccc(F)c1Cl [Crizotinib] | – | – | – | – | – | – | – | – |
| 1500 nM | COc1cc2c(Oc3ccc4[nH]c(C)cc4c3F)ccnc2cc1OCC1(N)CC1 [Anlotinib] | – | – | 2070 nM | – | – | – | 9440 nM | – |
